Measured values reported in the Biogen ADME set (Fang et al. 2023).
Values after ≈ are worked out from the molar mass of the structure shown.

Conditions: for aqueous solubility: pH 6.8

| SMILES | aqueous solubility [µg/mL] | MDR1-MDCK efflux ratio | intrinsic clearance, human liver microsomes [mL/min/kg] | intrinsic clearance, rat liver microsomes [mL/min/kg] | fraction unbound, human plasma | fraction unbound, rat plasma |
| --- | --- | --- | --- | --- | --- | --- |
| CN(C)c1cccc(C(=O)N2CCCC(c3cccc(-c4cccs4)n3)C2)c1 (centres undefined) | 2.1 (≈ 5.36 µM) | 0.647 | 499 | 3630 | – | – |
| O=C(c1ccc(Oc2ccccc2)cc1Cl)c1c[nH]c2ncnc(N[C@@H]3CC[C@@H](CO)OC3)c12 | – | 6.8 | ≤ 4.74 | ≤ 10.7 | 0.00341 | 0.00506 |
| O=C(c1cnc(-c2ccccc2)s1)N1CCOC2(CCCC2)C1 | 39 (≈ 119 µM) | 0.58 | 21.4 | 774 | – | – |
| CN(CCC1CCCCC1)C(=O)c1ccon1 | 69.9 (≈ 296 µM) | 0.597 | 40.4 | 972 | – | – |
| CNCc1cc(N(C)C)nc(C2CCCN2C(=O)C2CCCC2)n1 (centres undefined) | – | 45.6 | ≤ 4.74 | 249 | – | – |
| O=C(c1ccccc1N1CCOCC1)N(Cc1ccccn1)C1CCCCC1 | – | 3.17 | 990 | 3840 | – | – |
| Cc1ccccc1S(=O)(=O)N[C@@H]1CC[C@@H](O)[C@@H]1O | – | – | ≤ 4.74 | 17.7 | – | – |
| COc1ccc2ccccc2c1CNC(=O)c1cnc(C2CC2)nc1 | 5.12 (≈ 15.4 µM) | 0.645 | 33.7 | 442 | – | – |
| CS(=O)(=O)N1CCC(Nc2ccc3ccc(F)cc3n2)CC1 | 52.8 (≈ 163 µM) | – | 5.9 | 98 | – | – |
| O=C(Nc1ccc2[nH]ncc2c1)[C@H]1CCCNC1 | – | 0.38 | 14.5 | 343 | – | – |
| CCC1=C(C)CN(C(=O)NCCc2ccc(S(=O)(=O)NC(=O)N[C@H]3CC[C@H](C)CC3)cc2)C1=O | – | 68.6 | 19.2 | 305 | 0.00066 | 0.00023 |
| CCc1c(-c2ccccc2)[n+]([O-])c2c([n+]1[O-])CCCCC2 | – | 2.95 | 8.95 | 43.4 | – | – |
| O=c1[nH]c2cc3ccccc3c(=O)n2c2sc3c(c12)CCCC3 | 15.2 (≈ 47 µM) | – | – | – | – | – |
| C=CC[C@]1(O)CC[C@H]2[C@@H]3CCC4=CC(=O)CCC4=C3C=C[C@@]21C | – | 0.761 | 58.2 | 592 | – | – |
| O=C(NC1CCCCC1)N1CCc2nc3ccccn3c(=O)c2C1 | 50 (≈ 153 µM) | – | ≤ 4.74 | 123 | – | – |
| O=C(NCC1(c2ccccc2)CC1)c1cccnc1 | 41.2 (≈ 163 µM) | 0.757 | ≤ 4.74 | 231 | – | – |
| O=C(CSCCc1ccccn1)Nc1ccccc1 | – | 0.518 | 42.1 | 2670 | – | – |
| O=C(C1CCCN(C(=O)N2CCCC2)C1)N1CCc2ccccc2C1 (centres undefined) | 57.4 (≈ 168 µM) | – | 87.1 | 1010 | – | – |
| COCCNC(=O)CN1CCN(c2nccn2-c2cccc(Cl)c2)CC1 | 60.9 (≈ 161 µM) | 52.5 | 5.04 | 353 | – | – |
| CNC(=O)C1(Cc2ccc(-c3cccnc3)cc2)CCN(Cc2ccc(F)cc2)C1 (centres undefined) | – | 1.53 | 228 | 756 | 0.105 | 0.083 |
| CCOc1cc2c(cc1CCC(=O)N1CCC(Cc3ncncc3C(N)=O)CC1)CCC2 | 75.2 (≈ 172 µM) | – | 564 | 1650 | – | – |
| N#Cc1ccc(OC2CCNCC2)cc1 | – | – | ≤ 4.74 | ≤ 10.7 | – | – |
| Cc1nc(O)cc(C2CN(C3CCCCC3)C2)n1 | 41.4 (≈ 167 µM) | 16.5 | ≤ 4.74 | ≤ 10.7 | – | – |
| Nc1ncccc1OCc1cccc(Cl)c1 | – | – | 157 | 721 | – | – |
| Cc1cccc(NC(=O)c2cccnc2N2CCCCC2)n1 | 27.6 (≈ 93.1 µM) | 0.697 | 120 | 1670 | – | – |

Other lines, results leading:

| aqueous solubility [µg/mL] | MDR1-MDCK efflux ratio | intrinsic clearance, human liver microsomes [mL/min/kg] | intrinsic clearance, rat liver microsomes [mL/min/kg] | fraction unbound, human plasma | fraction unbound, rat plasma | SMILES |
| --- | --- | --- | --- | --- | --- | --- |
| 69.4 (≈ 247 µM) | – | – | – | – | – | Cc1cc(NC(=O)CN(C)c2c(F)cccc2F)on1 |
| 49.1 (≈ 157 µM) | 0.85 | ≤ 4.74 | 35.2 | – | – | CCC1(O)CN(c2ncnc3c2c(Br)nn3C)C1 |
| 49.2 (≈ 161 µM) | 0.812 | 8.22 | 294 | – | – | CCOC(=O)N1CCC(Nc2nc3ccccc3s2)CC1 |
| 36.4 (≈ 113 µM) | 0.673 | 89.4 | 1690 | – | – | CCc1cc(CN(C)c2nccc(-c3ccc(C)nc3C)n2)on1 |
| – | – | 13.6 | 186 | – | – | Cn1c(=O)oc2cc(NC(C3CC3)C3CC3)ccc21 |
| 6.6 (≈ 25.2 µM) | 0.674 | 17.7 | 261 | – | – | COc1ccccc1CC(=O)Nc1ncc(C)s1 |
| 5.8 (≈ 16.7 µM) | – | – | – | – | – | Cn1c(NC(=O)c2ccn(COc3ccccc3)n2)nc2ccccc21 |
| 58.9 (≈ 162 µM) | 0.661 | 174 | 4850 | – | – | COC(=O)N1CCCN(C(=O)c2ccc(-c3ccccc3Cl)o2)CC1 |
| – | – | 326 | 2650 | – | – | Cc1cc2c(s1)c1cnn(Cc3ccccc3F)c(=O)c1n2C |
| 41.5 (≈ 147 µM) | 0.652 | 145 | 2460 | – | – | CSc1cccc(-c2ccccc2-c2nnc(C)o2)c1 |
| 53.6 (≈ 208 µM) | – | – | – | – | – | CN(C)S(=O)(=O)Nc1ccc2sncc2c1 |
| – | – | 75.2 | 446 | – | – | CN(C)c1ccnc(C(=O)Nc2ccnn2-c2ccc(C#N)cc2)c1 |
| – | 122 | 120 | 235 | – | – | CCCc1cc(C)nc(O)c1CNC(=O)c1cc(-c2ccc(N3CCN(C(C)C)CC3)nc2)cc2c1cnn2C(C)C |
| – | – | 38.8 | 351 | – | – | CCNC(=O)c1noc(-c2cc(C(C)C)c(O)cc2O)c1-c1ccc(CN2CCOCC2)cc1 |
| 1.88 (≈ 4.43 µM) | 4.03 | 10.5 | 74.5 | – | – | COc1cc(CNc2nnn[nH]2)cc(Br)c1OCc1ccc(Cl)cc1 |
| 48.6 (≈ 146 µM) | 0.841 | 31.6 | 291 | – | – | Cn1ccnc1CNc1cc(Br)ccc1-n1cccn1 |
| 17.9 (≈ 81.2 µM) | 0.768 | ≤ 4.74 | 63.1 | – | – | CC(C)c1nnc(NCc2ccn(C)c2)o1 |

| aqueous solubility [µg/mL] | MDR1-MDCK efflux ratio | intrinsic clearance, human liver microsomes [mL/min/kg] | intrinsic clearance, rat liver microsomes [mL/min/kg] | fraction unbound, human plasma | fraction unbound, rat plasma | SMILES |
| --- | --- | --- | --- | --- | --- | --- |
| – | – | 19.9 | 186 | – | – | Cc1ccc2[nH]c(CNC(=O)c3cc(C(F)F)nn3C)nc2c1C |
| 43.8 (≈ 206 µM) | 0.766 | ≤ 4.74 | ≤ 10.7 | – | – | CN(C)C(=O)COc1ccc(N)c(F)c1 |
| – | 0.584 | ≤ 4.74 | 35.2 | – | – | Cc1ccc(NC(=O)OCC(F)(F)F)cn1 |
| 29.1 (≈ 58.7 µM) | 2.59 | 75.9 | 519 | – | – | COc1cc(Br)c(Nc2nc(-c3c(C)nc4ncccn34)cs2)c(Br)c1 |
| 25.7 (≈ 98.3 µM) | – | ≤ 4.74 | ≤ 10.7 | – | – | Cc1nc2c(cnn2C(C)C)c(C)c1CCC(=O)O |
| 34.2 (≈ 138 µM) | 2.3 | ≤ 4.74 | 490 | – | – | CC1CCN(CCNC(=O)c2ccncc2)CC1 |
| – | – | 10.7 | 52.2 | – | – | Cc1noc(Cc2ccc(C)c(O)c2)n1 |
| 20.2 (≈ 65.8 µM) | 0.666 | 19.3 | 308 | – | – | Cc1ccc2nc(C)c(C(=O)NOCc3ccccc3)cc2c1 |
| – | – | ≤ 4.74 | 75.9 | – | – | COc1cccc(CNC(=O)C2(C#N)CCOCC2)c1 |
| – | 0.617 | 633 | 4770 | – | – | Cc1ccc2nc(CN(C)Cc3cccc(Cl)c3Cl)cc(=O)n2c1 |
| 43 (≈ 114 µM) | 9.46 | ≤ 4.74 | 59.2 | – | – | Cn1cc(-c2ccc3nnc(C(F)(F)c4ccc5ncccc5c4)n3n2)cn1 |
| 80.8 (≈ 237 µM) | – | 29.3 | 362 | – | – | CN1C(=O)CCc2cc(NC(=O)C(C)(C)c3ccccc3F)ccc21 |
| – | 27.5 | 16.2 | 122 | 0.449 | 0.379 | Cc1ncc(CN2CCC(Nc3ccc4nnnn4n3)C(C)C2)s1 (centres undefined) |
| 1.29 (≈ 3.32 µM) | 5.07 | 166 | 497 | – | – | Cc1noc(C)c1CC(=O)N1CCc2[nH]c3ccc(Br)cc3c2C1 |
| 29.2 (≈ 102 µM) | 0.661 | 234 | 2160 | – | – | CC(C)c1nc(CCn2ccnc2-c2ccoc2)cs1 |
| 45.9 (≈ 143 µM) | 12.3 | ≤ 4.74 | 42.6 | – | – | CN(CC(=O)Nc1cc(F)cc(F)c1)c1ccnc(C(N)=O)c1 |
